Columns and labels:
[1] = target: T1, Acetylcholinesterase (Mus musculus) (UniProt P21836); test: Inhibition of AChE in Mus musculus (mouse) brain homogenate at 10 uM after 5 min by Ellman method relative to control; format: tissue-based
T1 sequence (whole entry): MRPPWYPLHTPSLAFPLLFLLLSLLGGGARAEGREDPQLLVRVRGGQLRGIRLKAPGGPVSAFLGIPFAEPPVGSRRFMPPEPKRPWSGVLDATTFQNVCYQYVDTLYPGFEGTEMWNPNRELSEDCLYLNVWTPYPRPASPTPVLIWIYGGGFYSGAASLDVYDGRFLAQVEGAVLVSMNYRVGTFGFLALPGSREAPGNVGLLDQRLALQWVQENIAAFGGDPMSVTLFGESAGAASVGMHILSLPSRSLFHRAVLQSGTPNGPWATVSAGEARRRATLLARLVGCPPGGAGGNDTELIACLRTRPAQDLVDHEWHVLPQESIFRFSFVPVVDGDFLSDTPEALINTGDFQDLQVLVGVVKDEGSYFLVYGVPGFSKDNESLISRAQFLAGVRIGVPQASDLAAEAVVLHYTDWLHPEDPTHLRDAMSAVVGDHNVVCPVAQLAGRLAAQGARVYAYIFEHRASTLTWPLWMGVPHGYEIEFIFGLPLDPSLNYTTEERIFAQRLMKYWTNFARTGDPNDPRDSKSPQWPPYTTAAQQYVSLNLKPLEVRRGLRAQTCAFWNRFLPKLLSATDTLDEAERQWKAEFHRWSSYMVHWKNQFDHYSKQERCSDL

[2] = target: T1, Acetylcholinesterase (Mus musculus); test: Inhibition of AChE in Mus musculus (mouse) brain homogenate assessed as residual activity measuring acetylthiocholine iodide hydrolysis per mg protein at 10 uM after 5 min by Ellman method; format: tissue-based
Mus musculus [3] = test: Antiamnesic activity in Mus musculus (mouse) assessed as retention of memory at 3 mg/kg, ip measured after 24 hr by elevated plus maze test; format: functional; conditions: route intraperitoneal
Mus musculus [4] = test: Antiamnesic activity in Mus musculus (mouse) assessed as retention of memory at 1 mg/kg, ip measured after 24 hr by elevated plus maze test; format: functional; conditions: route intraperitoneal

SMILES	Imax [1] [%]	Activity [2] [nmol/min]	Activity (Mus musculus [3]) [%]	Activity (Mus musculus [4]) [%]
O=C(COc1cccc2ccccc12)N1CCCC1	73.9	29.7	68.44	51.59
O=C(COc1cccc2ccccc12)N1CCCCC1	26.8	83.5	72.94	63
O=C(COc1cccc2ccccc12)N1CCOCC1	77.4	25.8	81.65	62.69
Nc1cccc2c(OCC(=O)N3CCCC3)cccc12	31.1	78.5	74.47	69.11
CN(C)C(=O)COc1cccc2ccccc12	33.1	76.2	77.78	52.92
CC(C)C(=O)Nc1cccc2c(OCCN3CCOCC3)cccc12	22.3	59	25.43	22.23
CCN(CC)CCOc1cccc2c(NC(=O)C(C)C)cccc12	26.3	56	28.1	19.28
NC(=O)CN1CCCC1=O [PIRACETAM]			46.88	32.47
Nc1cccc2c(OCC(=O)N3CCOCC3)cccc12	51	55.9	75.35	43.26
CN1CCN(C(=O)COc2cccc3ccccc23)CC1	86.5	15.4	86.18	73.76

Reference: ChEMBL document CHEMBL3046234, “Synthesis and pharmacological evaluation of some new naphthol derived aryloxy derivatives as cognition enhancers” (2012)
